Data from PubChem BioAssay AID1845200 (Molecular Pharmacology Branch, DTP, NCI, 2023).

Tested on: ASPS-1 complex tumor spheroids, viability
Assay: Anticancer human tumor ASPS-1 cell line growth inhibition;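 note: spheroids exposed to agents for 7 days after 3 days of growth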;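 for viability, T/C: 100% = DMSO vehicle treated spheroids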
Conditions: for IC50: curve of first compound; for viability, T/C: stronger effect = lower value
Procedure, shortened: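 Complex spheroids of malignant cells with endothelial cells and mesenchymal stem cells; agents alone or combined, from near clinical Cmax (or 10 microM if unknown) down in half-log steps, 0.25% DMSO final.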

## CC(C)n1c(=O)n(C)c2cnc3cc(F)c(-c4ccc(OCCCN5CCCCC5)nc4)cc3c21 + Cn1nnc2c(C(N)=O)ncn2c1=O
Second compound 1 µM
  IC50: 8400 nM
Second compound 3.16 µM
  IC50: 8140 nM
Second compound 10 µM
  IC50: 2560 nM
Second compound 31.6 µM
  IC50: 1580 nM
Second compound 100 µM
  IC50: 386 nM
Second compound 1 µM, first compound 0.0316 µM
  viability, T/C: 106%
Second compound 1 µM, first compound 0.1 µM
  viability, T/C: 104%
Second compound 1 µM, first compound 0.316 µM
  viability, T/C: 102%
Second compound 1 µM, first compound 1 µM
  viability, T/C: 102%
Second compound 1 µM, first compound 3.16 µM
  viability, T/C: 93.4%
Second compound 1 µM, first compound 10 µM
  viability, T/C: 42.1%
Second compound 3.16 µM, first compound 0.0316 µM
  viability, T/C: 102%
Second compound 3.16 µM, first compound 0.1 µM
  viability, T/C: 102%
Second compound 3.16 µM, first compound 0.316 µM
  viability, T/C: 103%
Second compound 3.16 µM, first compound 1 µM
  viability, T/C: 88.7%
Second compound 3.16 µM, first compound 3.16 µM
  viability, T/C: 82.4%
Second compound 3.16 µM, first compound 10 µM
  viability, T/C: 43%
Second compound 10 µM, first compound 0.0316 µM
  viability, T/C: 91.4%
Second compound 10 µM, first compound 0.1 µM
  viability, T/C: 79.8%
Second compound 10 µM, first compound 0.316 µM
  viability, T/C: 83.5%
Second compound 10 µM, first compound 1 µM
  viability, T/C: 86.7%
Second compound 10 µM, first compound 3.16 µM
  viability, T/C: 42%
Second compound 10 µM, first compound 10 µM
  viability, T/C: 25.4%
Second compound 31.6 µM, first compound 0.0316 µM
  viability, T/C: 81.1%
Second compound 31.6 µM, first compound 0.1 µM
  viability, T/C: 78.1%
Second compound 31.6 µM, first compound 0.316 µM
  viability, T/C: 77.7%
Second compound 31.6 µM, first compound 1 µM
  viability, T/C: 54.7%
Second compound 31.6 µM, first compound 3.16 µM
  viability, T/C: 39.3%
Second compound 31.6 µM, first compound 10 µM
  viability, T/C: 19.9%
Second compound 100 µM, first compound 0.0316 µM
  viability, T/C: 74.5%
Second compound 100 µM, first compound 0.1 µM
  viability, T/C: 60.5%
Second compound 100 µM, first compound 0.316 µM
  viability, T/C: 56.1%
Second compound 100 µM, first compound 1 µM
  viability, T/C: 41.2%
Second compound 100 µM, first compound 3.16 µM
  viability, T/C: 24.4%
Second compound 100 µM, first compound 10 µM
  viability, T/C: 20.2%
